Legend:
HIV LTR luciferase = assay: Nuclear microinjection of synthetic Tat or AcTat with HIV LTR luciferase reporter into HeLa cells; assay type: cell-based; conditions: for basal HIV promoter activity / transcriptional activity of AcTat (transactivation of the HIV promoter): TSA 400 nM or nicotinamide 5 mM, four hours (FIG. 6C)
Description: Subconfluent MEFs (70%) were grown on Cellocate coverslips (Eppendorf, Westbury, N.Y.), and nuclear microinjections were performed at room temperature with an automated injection system (Eppendorf Micromanipulator 5171 together with Eppendorf Transjector 5246). Samples were prepared as a 20 μl injection mix containing the HIV LTR luciferase reporter or 5×UAS luciferase (each 100 ng/μl), RSV-Tat (10 ng/μl) or Gal4-VP16 (50 ng/μl), CMV-CyclinT1 (100 ng/μl), CMV-SIRT1 (100 or 300 ng/μl) together with CMV-GFP (50 ng/μl) in sterile water. Six hours after microinjection, cells were examined under a Nikon Eclipse TE300 inverted fluorescent microscope to determine the number of GFP-positive cells, washed in cold phosphate buffer, and stored at −70° C. for luciferase assays (Promega). In HeLa cells, synthetic Tat or AcTat proteins (each 30 or 100 ng/μl) were co-injected with the wildtype or mutant HIV LTR luciferase reporters (each 100 ng/μl) together with CMV-GFP (50 ng/μl) and harvested four hours after injection. Cells were treated immediately after injection with 5,6-dichlorobenzimidazole riboside (DRB; 10 or 50 μM; Sigma), TSA (400 nM), or nicotinamide (5 mM). Microinjections in siRNA-treated cells were performed 48 hours after siRNA transfection.

[1] = tested on: Tat-dependent HIV transcription; assay: Tat transactivation of HIV LTR luciferase reporter in transfected HeLa cells treated with HR73; assay type: cell-based; conditions: at ~1 μM, 8 hours, dose-dependent (FIG. 7C left)
Description: (§1) In co-transfection experiments, human CMV-SIRT1 or CMV-SIRT1H363Y (600 ng) was co-transfected into HeLa cells plated in six-well plates with the HIV LTR luciferase reporter (200 ng) or the LTRΔNF-kB-luciferase reporter (200 ng) and increasing amounts of RSV-Tat (0 ng, 2 ng, 20 ng, and 200 ng) using the lipofectamine reagents (Invitrogen). In the control experiment, RSV-Tat was replaced by RSV luciferase (200 ng), and the HIV LTR luciferase construct was replaced by the HIV LTR CAT reporter. […] The RSV-luciferase construct was used as described above. […] Cells were harvested 8 hr later and processed for luciferase assays.

RSV LTR = assay: RSV luciferase control in transfected HeLa cells; assay type: cell-based; conditions: 1 μM (FIG. 7C right)
Description: as §1

p53 = p53 acetylation in cells; assay type: cell-based; conditions: 1 μM
[2] = tested on: HIV-R7/E-/GFP (HIVNL4-3 with GFP in place of nef); assay: Single-cycle HIV infection of Jurkat T cells, GFP expression by flow cytometry; assay type: cell-based; conditions: 1 μM, 36 hours (FIG. 7D left)
Description: (§2) The HIV molecular clone (HIV-R7/E^−/GFP) containing the GFP open reading frame in place of the nef gene and a frameshift mutation in the env gene as well as the method to generate pseudotyped viral particles with VSV-G was previously described. Jordan et al. (2003) Embo J 22: 1868-1877. The number of infective particles per ml was established by infecting 3×10^5 Jurkat cells with different amounts of viral suspension. The titer of the viral stock was measured by flow cytometry analysis of GFP expression 48 hours after infection. The pHR′-EF-1α/GFP construct is a minimal nonreplicative HIV-1 genome containing a heterologous promoter (EF-1α) driving GFP expression. Naldini et al. (1996) Science 272: 263-267. […]. Zufferey et al. (1997) Nat Biotechnol 15: 871-875. All vectors for the production of HIV-based lentiviral vectors were provided by D. Trono, University of Geneva, Switzerland. Jurkat T cells were incubated overnight with HIV-R7/E^−/GFP or pHR′-EF-1α/GFP viral particles at a theoretical multiplicity of infection (m.o.i.) of 0.5 in 24-well plates. […] Viral infection was monitored 36 hours later by flow cytometry analysis using a Calibur FACScan (Becton Dickinson).

pHR'-EF-1α/GFP = assay: HIV-based lentiviral vector expressing GFP from EF-1α promoter in Jurkat T cells (control); assay type: cell-based; conditions: 1 μM, 36 hours (FIG. 7D right)
Description: as §2

SIRT1 = target: T1, SIRT1 (Homo sapiens, UniProt Q96EB6); assay: In vitro Tat deacetylation assay with immunoprecipitated SIRT1; assay type: biochemical; conditions: AcTat, NAD+ 1 mM; nicotinamide 5 mM, TSA 400 nM; western blot (FIG. 2B)
T1 construct: made in house; host or cells: HEK 293 cells (transient transfection, anti-FLAG M2 agarose immunoprecipitation)
T1 sequence (Q96EB6 1-747): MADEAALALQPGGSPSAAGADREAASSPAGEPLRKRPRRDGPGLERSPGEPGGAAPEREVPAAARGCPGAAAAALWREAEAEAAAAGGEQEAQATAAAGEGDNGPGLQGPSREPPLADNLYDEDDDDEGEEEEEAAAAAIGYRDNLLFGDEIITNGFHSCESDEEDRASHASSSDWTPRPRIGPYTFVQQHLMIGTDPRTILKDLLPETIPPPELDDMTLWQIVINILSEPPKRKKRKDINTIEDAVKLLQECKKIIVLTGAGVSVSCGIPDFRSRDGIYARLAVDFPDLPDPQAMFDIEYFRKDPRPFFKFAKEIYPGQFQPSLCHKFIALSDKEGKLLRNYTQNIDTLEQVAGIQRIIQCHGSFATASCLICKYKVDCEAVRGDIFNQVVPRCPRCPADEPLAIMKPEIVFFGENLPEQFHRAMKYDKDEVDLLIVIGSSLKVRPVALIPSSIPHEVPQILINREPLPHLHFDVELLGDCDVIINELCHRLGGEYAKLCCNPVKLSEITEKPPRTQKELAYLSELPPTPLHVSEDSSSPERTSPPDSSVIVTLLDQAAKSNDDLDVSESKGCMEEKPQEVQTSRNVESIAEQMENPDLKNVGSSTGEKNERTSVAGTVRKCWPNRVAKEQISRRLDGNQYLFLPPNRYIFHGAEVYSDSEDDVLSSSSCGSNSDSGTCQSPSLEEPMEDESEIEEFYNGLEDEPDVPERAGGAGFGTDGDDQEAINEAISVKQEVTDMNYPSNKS
Description: Human SIRT1-7 FLAG-tagged plasmids were transfected in 293 cells with lipofectamine reagent (Invitrogen). Cells were lysed 24 hours after transfection with lysis buffer (50 mM Tris-Hcl, pH 7.5, 0.5 mM EDTA, 0.5% NP40, 150 mM NaCl) in the presence of protease inhibitors (Roche Molecular Biochemicals, Indianapolis, Ind.). Equal amounts of total proteins were immunoprecipitated with α-FLAG (anti-FLAG antibody) coupled to M2 agarose beads (Sigma, St Louis, Mo.), for 2 hours at 4° C. Immunoprecipitated material was washed twice with immunoprecipitation (IP) buffer and one time with SIRT deacetylation buffer (50 mM Tris-HCl pH 9, 4 mM MgCl2, 0.2 mM DTT). The beads were resuspended in 100 μl SIRT deacetylation buffer containing 1 μg synthetic Tat (72 amino acids) carrying an N-terminal biotin label and an acetyl group at position 50. Kaehlcke et al. (2003), supra. Reactions containing TSA (400 nM, WACO Bioproducts, Richmond, Va.) or nicotinamide (5 mM, Sigma) were preincubated for 10 min at room temperature. […] Reactions were stopped by the addition of SDS loading buffer, boiled, and after brief centrifugation, analyzed by western blotting with rabbit α-AcTat antibodies (Kaehlcke et al. (2003), supra) or horseradish peroxidase-conjugated streptavidin (Jackson Immunoresearch Laboratories, West Grove, Pa.). SIRT1-7 proteins were detected with polyclonal α-FLAG antibodies (Sigma).

| SMILES | effect on SIRT1-mediated deacetylation of Tat (SIRT1) | basal HIV promoter activity (HIV LTR luciferase) | transcriptional activity of AcTat (transactivation of the HIV promoter) (HIV LTR luciferase) | also measured |
| --- | --- | --- | --- | --- |
| OC[C@H]1O[C@@H](n2cnc3cc(Cl)c(Cl)cc32)[C@H](O)[C@@H]1O [DRB, 5,6-dichlorobenzimidazole riboside] |  |  |  | transactivation by Tat and AcTat (HIV LTR luciferase; Tat or AcTat 30 ng/μl, DRB 10 or 50 μM, four hours (FIG. 6B)): inhibited in a dose-dependent manner |
| O=C1Oc2ccc3cc(Br)ccc3c2CC1c1ccccc1 (stereo not drawn) [HR73] |  |  |  | suppression of Tat-dependent HIV transcription [1]: 3 fold; activity of the RSV LTR (RSV LTR): did not suppress; acetylation of p53 (p53): induced hyperacetylation; reduction of HIV gene expression as measured by GFP expression [2]: 5 fold; GFP expression from the EF-1α promoter (pHR'-EF-1α/GFP): not affected |
| CC(/C=C/C(=O)NO)=C\[C@@H](C)C(=O)c1ccc(N(C)C)cc1 [TSA] | had no effect | enhanced | enhanced |  |
| NC(=O)c1cccnc1 [nicotinamide] | completely inhibited | stimulating | blocked |  |

Source: patent US7485416B2, “Screening methods for the identification of agents that inhibit SIRT1 Tat deacetylase activity” (The Regents of the University of California, priority 2003, dated 2009)
